Data reported in US20040023802A1, “Increasing plant yield and/or vigor by seed treatment with a neonicotinoid compound” (Monsanto Technology, L.L.C., priority 2002, published 2004).

What was measured:
Assay type in all cases: in vivo
commercial corn hybrids = assay: Hybrid seed production (breeding station) field trial: final stand count and plot yield of corn from imidacloprid-treated seed; conditions: for Stand count, Imidacloprid treated / Corn yield, Imidacloprid treated: 0.165 mg/kernel + fungicide; for Stand count, Imidacloprid treated: V5 stage; for Corn yield, Imidacloprid treated: at maturity, 15% moisture; for Corn yield, Difference / Stand count, Difference: imidacloprid treated vs fungicide-only control; for Actual Yield Over Expected: yield increase vs that expected from stand improvement (about 1% per 1,000 plants/ac); for Actual Yield Over 2× of Expected: yield increase vs two-times that predicted from stand improvement
[1] = test system: corn rootworm; secondary insect pests of corn; assay: Insect protection of corn by imidacloprid seed treatment at 0.165 mg/kernel (stated as previously shown); conditions: 0.165 mg imidacloprid/kernel
[2] = test system: isoline (non-transgenic) corn hybrids RX670 and RX601; assay: Field tests of corn yield of isoline hybrids at low pest pressure, with and without imidacloprid seed treatment; conditions: 60 gm per 100 kg of seed; four location/hybrid cases
Procedure: (§1) Corn hybrids with and without transgenic events expressing insecticidal proteins were evaluated for field efficacy. The hybrids that were evaluated were RX670 and RX601, each as an isoline (having no transgenic events) and each having a transgenic event expressing the Cry3Bb protein having activity against Diabrotica spp. (corn rootworm)—designated as MON853, or a transgenic event expressing the Cry3Bb protein having activity against corn rootworm—designated as MON863, or a combination of MON853 and a transgenic event expressing the Cry1A protein having activity against European corn borer—designated as MON810, or a combination of MON863 and MON810. Accordingly, an isoline and four transgenic forms were tested for each hybrid. Each type of seed was tested with and without seed treatment with 60 gm of imidacloprid per 100 kg of seed, applied in a Niklas seed treater. The isoline seeds were also tested with and without the use of conventional soil-applied insecticides, which were applied as described in Example 3.

corn hybrids = assay: Field strip trials of corn yield under different tillage regimes: soil insecticide alone or plus Gaucho seed treatment
Procedure: Seed of three corn hybrids were treated with imidacloprid in the manner described in Example 3. Seed were planted using standard planting equipment in field experiments across the U.S. corn belt. All experiments were conducted as strip trials, under a variety of tillage regimes, and all trials received standard weed control and cultural practices common to commercial corn production. Plot yield was collected using standard mechanical harvesting equipment.
Soil insecticides were applied in the manner described in Example 2. Considerable increase in corn yield was also observed when corn seed treated with imidacloprid were planted in soils treated with soil-applied insecticide. The increase in yield was observed under all tillage conditions and for all the hybrids tested. Table 7 compares the yield from untreated corn seeds and corn seeds treated with imidacloprid when planted on soil treated with soil-applied insecticide. […] Soil-applied insecticides are known to be an effective method for controlling secondary insects, so the increase in corn yield was surprising.
No-Till-Tillage system refers to situations where no tillage methods are applied to the soil prior to or at planting.
Conservation/Minimum tillage refers to reduced tillage practices allowing at least 30% of soil surface to remain covered with crop residue.
Conventional Tillage refers to tillage practices where less than 30% of soil surface is covered with previous crop residue.
Such practices may include moldboard plowing, disking, or multiple field cultivation passes prior to or at planting of crop. Strip and Ridge-Till, although usually grouped in conservation tillage because of beneficial effects on soil and water retention, are grouped in conventional tillage here because the tilled zones in which the crop is planted provide an environment more similar to true conventional tillage.

[3] = test system: corn hybrids RX670 and RX601 having transgenic events MON853, MON863, MON810; assay: Field trials of corn yield of transgenic seed at low pest pressure, with and without imidacloprid seed treatment; conditions: 60 gm per 100 kg of seed; all trials; relative absence of insect pressure
Procedure: as §1

[4] = hybrid B = DKC46-26, 10 locations
[5] = hybrid D = DKC51-88, 10 locations
[6] = hybrid F = LH244XLH295, 10 locations
[7] = hybrid H = HC33XLH277, 14 locations
[8] = hybrid I = DKC57-38, 14 locations
[9] = vs fungicide-treated control, 12 hybrids

With `O=[N+]([O-])NC1=NCCN1Cc1ccc(Cl)nc1` [Imidacloprid, imidacloprid] the “Stand count, Imidacloprid treated” value (commercial corn hybrids; hybrid A = DK440, 10 locations) was 31920 plts/ac, the “Corn yield, Imidacloprid treated” value (commercial corn hybrids; hybrid A = DK440, 10 locations) was 163.5 bu/ac and the “Stand count, Imidacloprid treated” value (commercial corn hybrids; [4]) was 32061 plts/ac. The “Corn yield, Imidacloprid treated” value (commercial corn hybrids; [4]) was 170.8 bu/ac, the “Stand count, Imidacloprid treated” value (commercial corn hybrids; hybrid C = DK493, 10 locations) was 31217 plts/ac and the “Corn yield, Imidacloprid treated” value (commercial corn hybrids; hybrid C = DK493, 10 locations) was 159.6 bu/ac. For the same compound, the “Stand count, Imidacloprid treated” value (commercial corn hybrids; [5]) was 31828 plts/ac, the “Corn yield, Imidacloprid treated” value (commercial corn hybrids; [5]) was 169.4 bu/ac and the “Stand count, Imidacloprid treated” value (commercial corn hybrids; hybrid E = DK537, 10 locations) was 32011 plts/ac. The “Corn yield, Imidacloprid treated” value (commercial corn hybrids; hybrid E = DK537, 10 locations) was 171.2 bu/ac, the “Stand count, Imidacloprid treated” value (commercial corn hybrids; [6]) was 30786 plts/ac and the “Corn yield, Imidacloprid treated” value (commercial corn hybrids; [6]) was 173.1 bu/ac. For the same compound, the “Stand count, Imidacloprid treated” value (commercial corn hybrids; hybrid G = DK567, 14 locations) was 28766 plts/ac, the “Corn yield, Imidacloprid treated” value (commercial corn hybrids; hybrid G = DK567, 14 locations) was 167.5 bu/ac and the “Stand count, Imidacloprid treated” value (commercial corn hybrids; [7]) was 28004 plts/ac. The “Corn yield, Imidacloprid treated” value (commercial corn hybrids; [7]) was 164.6 bu/ac, the “Stand count, Imidacloprid treated” value (commercial corn hybrids; [8]) was 28460 plts/ac and the “Corn yield, Imidacloprid treated” value (commercial corn hybrids; [8]) was 172.3 bu/ac. The “Stand count, Imidacloprid treated” value (commercial corn hybrids; hybrid J = DK585, 14 locations) was 28273 plts/ac, the “Corn yield, Imidacloprid treated” value (commercial corn hybrids; hybrid J = DK585, 14 locations) was 179.5 bu/ac and the “Stand count, Imidacloprid treated” value (commercial corn hybrids; hybrid K = DK611, 14 locations) was 28984 plts/ac. For the same compound, the “Corn yield, Imidacloprid treated” value (commercial corn hybrids; hybrid K = DK611, 14 locations) was 171.3 bu/ac, the “Stand count, Imidacloprid treated” value (commercial corn hybrids; hybrid L = RX708, 14 locations) was 28986 plts/ac and the “Corn yield, Imidacloprid treated” value (commercial corn hybrids; hybrid L = RX708, 14 locations) was 180.7 bu/ac. The “Corn yield, Difference” value (commercial corn hybrids; hybrid A = DK440, 10 locations) was 2.0 bu/ac, the “Stand count, Difference” value (commercial corn hybrids; hybrid A = DK440, 10 locations) was 843.8 plts/ac and the “Corn yield, Difference” value (commercial corn hybrids; [4]) was 4.1 bu/ac. For the same compound, the “Stand count, Difference” value (commercial corn hybrids; [4]) was 439.0 plts/ac, the “Corn yield, Difference” value (commercial corn hybrids; hybrid C = DK493, 10 locations) was 5.8 bu/ac and the “Stand count, Difference” value (commercial corn hybrids; hybrid C = DK493, 10 locations) was 749.5 plts/ac. The “Corn yield, Difference” value (commercial corn hybrids; [5]) was −0.7 bu/ac, the “Stand count, Difference” value (commercial corn hybrids; [5]) was 946.8 plts/ac and the “Corn yield, Difference” value (commercial corn hybrids; hybrid E = DK537, 10 locations) was 1.0 bu/ac. The “Stand count, Difference” value (commercial corn hybrids; hybrid E = DK537, 10 locations) was 620.0 plts/ac, the “Corn yield, Difference” value (commercial corn hybrids; [6]) was 4.7 bu/ac and the “Stand count, Difference” value (commercial corn hybrids; [6]) was 1162.3 plts/ac. For the same compound, the “Corn yield, Difference” value (commercial corn hybrids; hybrid G = DK567, 14 locations) was 3.5 bu/ac, the “Stand count, Difference” value (commercial corn hybrids; hybrid G = DK567, 14 locations) was 1189.2 plts/ac and the “Corn yield, Difference” value (commercial corn hybrids; [7]) was 4.8 bu/ac. The “Stand count, Difference” value (commercial corn hybrids; [7]) was 39.6 plts/ac, the “Corn yield, Difference” value (commercial corn hybrids; [8]) was 9.2 bu/ac and the “Stand count, Difference” value (commercial corn hybrids; [8]) was 1822.2 plts/ac. For the same compound, the “Corn yield, Difference” value (commercial corn hybrids; hybrid J = DK585, 14 locations) was 3.7 bu/ac, the “Stand count, Difference” value (commercial corn hybrids; hybrid J = DK585, 14 locations) was 429.3 plts/ac and the “Corn yield, Difference” value (commercial corn hybrids; hybrid K = DK611, 14 locations) was 0.1 bu/ac. For the same compound, the “Stand count, Difference” value (commercial corn hybrids; hybrid K = DK611, 14 locations) was 1022.8 plts/ac, the “Corn yield, Difference” value (commercial corn hybrids; hybrid L = RX708, 14 locations) was 6.9 bu/ac and the “Stand count, Difference” value (commercial corn hybrids; hybrid L = RX708, 14 locations) was 803.7 plts/ac. The “increase or decrease in corn yield vs untreated seeds (FIG. 2 by hybrid, FIG. 3 by location)” value (commercial corn hybrids; twelve hybrids, twenty four locations) was “consistent and commercially important increases in corn yield”, the “hybrid/seed treatment combinations with yield increase more than expected on the basis of stand improvement alone” value (commercial corn hybrids; [9]) was 9 out of 12 and the “hybrid/seed treatment combinations with yield increase over two-times that predicted on the basis of stand improvement” value (commercial corn hybrids; [9]) was 7 out of 12. The “Actual Yield Over Expected” value (commercial corn hybrids; hybrid A = DK440) was “Yes”, the “Actual Yield Over Expected” value (commercial corn hybrids; hybrid B = DKC46-26) was “Yes” and the “Actual Yield Over Expected” value (commercial corn hybrids; hybrid C = DK493) was “Yes”. The “Actual Yield Over Expected” value (commercial corn hybrids; hybrid D = DKC51-88) was “No”, the “Actual Yield Over Expected” value (commercial corn hybrids; hybrid E = DK537) was “No” and the “Actual Yield Over Expected” value (commercial corn hybrids; hybrid F = LH244XLH295) was “Yes”. The “Actual Yield Over Expected” value (commercial corn hybrids; hybrid G = DK567) was “Yes”, the “Actual Yield Over Expected” value (commercial corn hybrids; hybrid H = HC33XLH277) was “Yes” and the “Actual Yield Over Expected” value (commercial corn hybrids; hybrid I = DKC57-38) was “Yes”. The “Actual Yield Over Expected” value (commercial corn hybrids; hybrid J = DK585) was “Yes”, the “Actual Yield Over Expected” value (commercial corn hybrids; hybrid K = DK611) was “No” and the “Actual Yield Over Expected” value (commercial corn hybrids; hybrid L = RX708) was “Yes”. The “Actual Yield Over 2× of Expected” value (commercial corn hybrids; hybrid A = DK440) was “No”, the “Actual Yield Over 2× of Expected” value (commercial corn hybrids; hybrid B = DKC46-26) was “Yes” and the “Actual Yield Over 2× of Expected” value (commercial corn hybrids; hybrid C = DK493) was “Yes”. For the same compound, the “Actual Yield Over 2× of Expected” value (commercial corn hybrids; hybrid D = DKC51-88) was “No”, the “Actual Yield Over 2× of Expected” value (commercial corn hybrids; hybrid E = DK537) was “No” and the “Actual Yield Over 2× of Expected” value (commercial corn hybrids; hybrid F = LH244XLH295) was “Yes”. For the same compound, the “Actual Yield Over 2× of Expected” value (commercial corn hybrids; hybrid G = DK567) was “No”, the “Actual Yield Over 2× of Expected” value (commercial corn hybrids; hybrid H = HC33XLH277) was “Yes” and the “Actual Yield Over 2× of Expected” value (commercial corn hybrids; hybrid I = DKC57-38) was “Yes”. For the same compound, the “Actual Yield Over 2× of Expected” value (commercial corn hybrids; hybrid J = DK585) was “Yes”, the “Actual Yield Over 2× of Expected” value (commercial corn hybrids; hybrid K = DK611) was “No” and the “Actual Yield Over 2× of Expected” value (commercial corn hybrids; hybrid L = RX708) was “Yes”. For the same compound, the “protection of corn seedlings against stand reducing and growth limiting secondary insect pests” value [1] was “effective”, the “reduction of root injury by corn rootworm” value ([1]; locations with economically damaging levels of corn rootworm) was “not significantly reduce root injury” and the “effect of imidacloprid treatment on yield for isoline corn” value [2] was “increased by imidacloprid treatment in one-half of the cases tested”. The “increase in corn yield” value (corn hybrids; conservation/minimum tillage) was 1.6%, the “increase in corn yield” value (corn hybrids; convention tillage) was 1.7% and the “increase in corn yield” value (corn hybrids; no-till cultivation) was 6.3%. For the same compound, the “corn yield vs seeds without imidacloprid treatment” value (corn hybrids; planted on soil treated with soil-applied insecticide, all tillage conditions and hybrids) was “considerably higher yield” and the “corn yield of transgenic seed treated with imidacloprid vs isolines and untreated transgenic strains” value [3] was “higher than the isolines, and also higher than the untreated transgenic strains”.
